Tests used:
Format in all cases: in vivo
[1] = tested on: smallflower umbrella sedge (CYPDI, Cyperus difformis); assay: Test G paddy, alone and in combination: smallflower umbrella sedge; conditions: evaluated after 14 days
Description: (§1) Seeds of smallflower umbrella sedge (CYPDI, Cyperus difformis) and ducksalad (HETLI, Heteranthera limosa) were sown on the soil surface in two separate quadrants of 11 cm tubs filled with steam pasteurized Tama soil. Simultaneously, plantings of barnyardgrass (ECHCG, Echinochloa crus-galli) and japonica rice (ORYSP, Oryza sativa) were established in separate “plug” flats. Plants were grown in a greenhouse using supplemental lighting to maintain a photoperiod of approximately 16 h; daytime and nighttime temperatures were approximately 27-30° C. and 19-22° C., respectively. After 8 days, barnyardgrass plants were transplanted to one of the remaining quadrants of the tub, and the water level was adjusted to a final depth of 3 cm. Herbicide application timing was targeted at the 2.0 to 2.5 leaf stage and the plants were treated with test chemicals formulated in a non-phytotoxic solvent. Treated plants and controls were maintained in a greenhouse for 14 days, after which time all species were compared to controls and visually evaluated. Plant response ratings are summarized in Tables G1 through G3, and are based on a scale of 0 to 100 where 0 is no effect and 100 is complete control. A dash (-) response means no test result.

[2] = tested on: ducksalad (HETLI, Heteranthera limosa); assay: Test G paddy, alone and in combination: ducksalad; conditions: evaluated after 14 days
Description: as §1

[3] = tested on: japonica rice (ORYSP, Oryza sativa); assay: Test G paddy, alone and in combination: japonica rice; conditions: evaluated after 14 days
Description: as §1

[4] = tested on: barnyardgrass (ECHCG, Echinochloa crus-galli); assay: Test G paddy, alone and in combination: barnyardgrass; conditions: evaluated after 14 days
Description: as §1

[5] = tested on: Russian thistle (SASKR, Salsola iberica); assay: Test H post-emergence, alone and in combination: Russian thistle
Source text: (§2) Seeds of plant species selected from wheat (TRZAW, Triticum aestivum), barley (HORBW, Hordeum vulgare), Kochia (KCHSC, Kochia caoparia) blackgrass (ALOMY, Alopecurus myosuroides), canarygrass (PHAMI, Phalaris minor), Italian ryegrass (LOLMU, Lolium multiflorum) common lambsquarter (CHEAL, Chenopodium album), pigweed (AMARE, Amaranthus retroflexus), Common Chickweed (STEME, Stellaria media), Russian thistle (SASKR, Salsola iberica), Wild Buckwheat (POLCO, Polygonum convolvulus), Catchweed Bedstraw (GALAP, Galium aparine), Mustard (SINAR, Sinapisar arvensis), Henbit Deadnettle (LAMAM, Lamium amplexicaule), Wild Radish (RAPRA, Raphanus raphanistrum), Field Poppy (PAPRH, Papaver rhoeas), Field Violet (VIOAR, Viola arvennsis), Scentless Chamomile (MATIN Matricaria inodora) were planted into soil and treated post-emergence with test chemicals formulated in a non-phytotoxic solvent mixture. Plants were grown in a greenhouse using supplemental lighting to maintain a photoperiod of approximately 14 hours; daytime and nighttime temperatures were approximately 23°-29° and 16°-19° Celsius, respectively. Balanced fertilizer was applied through the watering system. Treated plants and controls were maintained in a greenhouse for 20 days, after which time all species were compared to controls and visually evaluated. Plant response ratings were calculated as the mean of three replicates (unless otherwise indicated), are summarized in Table G, and are based on a scale of 0 to 100 where 0 is no effect and 100 is complete control. A dash (-) response means no test result.

[6] = tested on: Mustard (SINAR, Sinapisar arvensis); assay: Test H post-emergence, alone and in combination: Mustard
Summary of the method: (§3)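 Seedlings grown in soil were sprayed post-emergence with test chemicals in a non-phytotoxic solvent mixture, then kept in a greenhouse (~14 h photoperiod, ~23°-29° day/16°-19° night Celsius) for 20 days. Injury was rated visually against untreated controls on a 0–100 scale (100 = complete control), averaged over three replicates.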

[7] = tested on: blackgrass (ALOMY, Alopecurus myosuroides); assay: Test H post-emergence, alone and in combination: blackgrass
Summary of the method: as §3

[8] = tested on: Wild Buckwheat (POLCO, Polygonum convolvulus); assay: Test H post-emergence, alone and in combination: Wild Buckwheat
Summary of the method: as §3

[9] = tested on: Field Poppy (PAPRH, Papaver rhoeas); assay: Test H post-emergence, alone and in combination: Field Poppy
Summary of the method: as §3

[10] = tested on: Scentless Chamomile (MATIN Matricaria inodora); assay: Test H post-emergence, alone and in combination: Scentless Chamomile
Source text: as §2

[11] = tested on: barley (HORBW, Hordeum vulgare); assay: Test H post-emergence, alone and in combination: barley
Source text: as §2

[12] = tested on: Field Violet (VIOAR, Viola arvennsis); assay: Test H post-emergence, alone and in combination: Field Violet
Summary of the method: as §3

[13] = tested on: canarygrass (PHAMI, Phalaris minor); assay: Test H post-emergence, alone and in combination: canarygrass
Summary of the method: as §3

[14] = tested on: Catchweed Bedstraw (GALAP, Galium aparine); assay: Test H post-emergence, alone and in combination: Catchweed Bedstraw
Source text: as §2

[15] = tested on: Wild Radish (RAPRA, Raphanus raphanistrum); assay: Test H post-emergence, alone and in combination: Wild Radish
Source text: as §2

[16] = tested on: Henbit Deadnettle (LAMAM, Lamium amplexicaule); assay: Test H post-emergence, alone and in combination: Henbit Deadnettle
Source text: as §2

[17] = tested on: common lambsquarter (CHEAL, Chenopodium album); assay: Test H post-emergence, alone and in combination: common lambsquarter
Summary of the method: as §3

[18] = tested on: Common Chickweed (STEME, Stellaria media); assay: Test H post-emergence, alone and in combination: Common Chickweed
Source text: as §2

[19] = tested on: wheat (TRZAW, Triticum aestivum); assay: Test H post-emergence, alone and in combination: wheat
Summary of the method: as §3

[20] = tested on: Kochia (KCHSC, Kochia caoparia); assay: Test H post-emergence, alone and in combination: Kochia
Source text: as §2

[21] = tested on: Italian ryegrass (LOLMU, Lolium multiflorum); assay: Test H post-emergence, alone and in combination: Italian ryegrass
Source text: as §2

[22] = tested on: pigweed (AMARE, Amaranthus retroflexus); assay: Test H post-emergence, alone and in combination: pigweed
Summary of the method: as §3

In the case of `COC(=O)c1ccccc1CS(=O)(=O)NC(=O)Nc1nc(OC)cc(OC)n1` [b2a, bensulfuron-methyl], the “CYPDI plant response rating (scale of 0 to 100)” value (“CYPDI plant response rating” below) ([1]; Rate 16 g/ha) was 90, the “CYPDI plant response rating” value ([1]; Rate 31 g/ha) was 90 and the “CYPDI plant response rating” value ([1]; Rate 32 g/ha) was 90. For the same molecule, the “CYPDI plant response rating” value ([1]; Rate 62 g/ha) was 93, the “CYPDI plant response rating” value ([1]; Rate 64 g/ha) was 90 and the “CYPDI plant response rating” value ([1]; Rate 125 g/ha) was 93. For the same molecule, the “HETLI plant response rating (scale of 0 to 100)” value (shortened to “HETLI plant response rating”) ([2]; Rate 16 g/ha) was 90, the “HETLI plant response rating” value ([2]; Rate 31 g/ha) was 95 and the “HETLI plant response rating” value ([2]; Rate 32 g/ha) was 90. For the same molecule, the “HETLI plant response rating” value ([2]; Rate 62 g/ha) was 98, the “HETLI plant response rating” value ([2]; Rate 64 g/ha) was 95 and the “HETLI plant response rating” value ([2]; Rate 125 g/ha) was 98. For the same molecule, the “ORYSP plant response rating (scale of 0 to 100)” value (“ORYSP plant response rating” for short) ([3]; Rate 16 g/ha) was 0, the “ORYSP plant response rating” value ([3]; Rate 31 g/ha) was 0 and the “ORYSP plant response rating” value ([3]; Rate 32 g/ha) was 0. The “ORYSP plant response rating” value ([3]; Rate 62 g/ha) was 0, the “ORYSP plant response rating” value ([3]; Rate 64 g/ha) was 0 and the “ORYSP plant response rating” value ([3]; Rate 125 g/ha) was 0. For the same molecule, the “ECHCG plant response rating (scale of 0 to 100)” value (“ECHCG plant response rating” below) ([4]; Rate 16 g/ha) was 60, the “ECHCG plant response rating” value ([4]; Rate 31 g/ha) was 68 and the “ECHCG plant response rating” value ([4]; Rate 32 g/ha) was 60. For the same molecule, the “ECHCG plant response rating” value ([4]; Rate 62 g/ha) was 75, the “ECHCG plant response rating” value ([4]; Rate 64 g/ha) was 68 and the “ECHCG plant response rating” value ([4]; Rate 125 g/ha) was 75.
With `COC(=O)c1sccc1S(=O)(=O)NC(=O)Nc1nc(C)nc(OC)n1` [b2c, thifensulfuron-methyl] the SASKR plant response ([5]; Rate 8) was 100, the SASKR plant response ([5]; Rate 16) was 100 and the SASKR plant response ([5]; Rate 31) was 100. For the same molecule, the SASKR plant response ([5]; Rate 62) was 100, the SINAR plant response ([6]; Rate 8) was 80 and the SINAR plant response ([6]; Rate 16) was 90. It also gave an SINAR plant response ([6]; Rate 31) of 85, an SINAR plant response ([6]; Rate 62) of 95 and an ALOMY plant response ([7]; Rate 8) of 10. The ALOMY plant response ([7]; Rate 16) was 45, the ALOMY plant response ([7]; Rate 31) was 60 and the ALOMY plant response ([7]; Rate 62) was 65. It also gave a POLCO plant response ([8]; Rate 8) of 95, a POLCO plant response ([8]; Rate 16) of 95 and a POLCO plant response ([8]; Rate 31) of 95. For the same molecule, the POLCO plant response ([8]; Rate 62) was 95, the PAPRH plant response ([9]; Rate 8) was 70 and the PAPRH plant response ([9]; Rate 16) was 75. It also gave a PAPRH plant response ([9]; Rate 31) of 100, a PAPRH plant response ([9]; Rate 62) of 100 and an MATIN plant response ([10]; Rate 8) of 95. It also gave an MATIN plant response ([10]; Rate 16) of 90, an MATIN plant response ([10]; Rate 31) of 100 and an MATIN plant response ([10]; Rate 62) of 100. It also gave an HORBW plant response ([11]; Rate 8) of 0, an HORBW plant response ([11]; Rate 16) of 5 and an HORBW plant response ([11]; Rate 31) of 5. For the same molecule, the HORBW plant response ([11]; Rate 62) was 5, the VIOAR plant response ([12]; Rate 8) was 80 and the VIOAR plant response ([12]; Rate 16) was 85. It also gave a VIOAR plant response ([12]; Rate 31) of 75, a VIOAR plant response ([12]; Rate 62) of 95 and a PHAMI plant response ([13]; Rate 8) of 10. For the same molecule, the PHAMI plant response ([13]; Rate 16) was 60, the PHAMI plant response ([13]; Rate 31) was 70 and the PHAMI plant response ([13]; Rate 62) was 90. The GALAP plant response ([14]; Rate 8) was 80, the GALAP plant response ([14]; Rate 16) was 90 and the GALAP plant response ([14]; Rate 31) was 75. For the same molecule, the GALAP plant response ([14]; Rate 62) was 95, the RAPRA plant response ([15]; Rate 8) was 95 and the RAPRA plant response ([15]; Rate 16) was 75. For the same molecule, the RAPRA plant response ([15]; Rate 31) was 100, the RAPRA plant response ([15]; Rate 62) was 95 and the LAMAM plant response ([16]; Rate 8) was 60. For the same molecule, the LAMAM plant response ([16]; Rate 16) was 70, the LAMAM plant response ([16]; Rate 31) was 75 and the LAMAM plant response ([16]; Rate 62) was 75. For the same molecule, the CHEAL plant response ([17]; Rate 8) was 85, the CHEAL plant response ([17]; Rate 16) was 70 and the CHEAL plant response ([17]; Rate 31) was 100. The CHEAL plant response ([17]; Rate 62) was 95, the STEME plant response ([18]; Rate 8) was 85 and the STEME plant response ([18]; Rate 16) was 100. It also gave an STEME plant response ([18]; Rate 31) of 100, an STEME plant response ([18]; Rate 62) of 100 and a TRZAW plant response ([19]; Rate 8) of 0. It also gave a TRZAW plant response ([19]; Rate 16) of 0, a TRZAW plant response ([19]; Rate 31) of 0 and a TRZAW plant response ([19]; Rate 62) of 5. The KCHSC plant response ([20]; Rate 8) was 70, the KCHSC plant response ([20]; Rate 16) was 85 and the KCHSC plant response ([20]; Rate 31) was 95. It also gave a KCHSC plant response ([20]; Rate 62) of 100, an LOLMU plant response ([21]; Rate 8) of 20 and an LOLMU plant response ([21]; Rate 16) of 50. It also gave an LOLMU plant response ([21]; Rate 31) of 70, an LOLMU plant response ([21]; Rate 62) of 90 and an AMARI plant response ([22]; Rate 8) of 100. For the same molecule, the AMARI plant response ([22]; Rate 16) was 100, the AMARI plant response ([22]; Rate 31) was 100 and the AMARI plant response ([22]; Rate 62) was 100.
In the case of `COCCCn1c(-c2cccc(OC)c2)ncc(C(=O)C2=C(O)CCCC2=O)c1=O` [b12a, 5-[(2-hydroxy-6-oxo-1-cyclohexen-1-yl)carbonyl]-2-(3-methoxyphenyl)-3-(3-methoxypropyl)-4(3H)-pyrimidinone], the “CYPDI plant response rating” value ([1]; Rate 125 g/ha) was 80, the “HETLI plant response rating” value ([2]; Rate 125 g/ha) was 80 and the “ORYSP plant response rating” value ([3]; Rate 125 g/ha) was 5. The “ECHCG plant response rating” value ([4]; Rate 125 g/ha) was 35.
